# Patent publication US9586914B2, “Modulators of C3a receptors” (THE UNIVERSITY OF QUEENSLAND, priority 2011, dated 2017)
# Assays:
# [1] = biological target: T1, C3aR (Homo sapiens, UniProt Q16581); assay: Desensitization experiments (Ca^2+ efflux after hC3a desensitization); assay type: cell-based; details: hC3a 3 μM first; second addition of 1 μM compound; HMDM
# T1 construct: peripheral blood mononuclear cells were isolated from buffy coat (obtained from Australian Red Cross Blood Service, Kelvin Grove); endogenous in cells; host or cells: primary human monocyte-derived macrophages (HMDM) differentiated from CD14+ monocytes of donor buffy coat
# T1 sequence (Q16581 1-482): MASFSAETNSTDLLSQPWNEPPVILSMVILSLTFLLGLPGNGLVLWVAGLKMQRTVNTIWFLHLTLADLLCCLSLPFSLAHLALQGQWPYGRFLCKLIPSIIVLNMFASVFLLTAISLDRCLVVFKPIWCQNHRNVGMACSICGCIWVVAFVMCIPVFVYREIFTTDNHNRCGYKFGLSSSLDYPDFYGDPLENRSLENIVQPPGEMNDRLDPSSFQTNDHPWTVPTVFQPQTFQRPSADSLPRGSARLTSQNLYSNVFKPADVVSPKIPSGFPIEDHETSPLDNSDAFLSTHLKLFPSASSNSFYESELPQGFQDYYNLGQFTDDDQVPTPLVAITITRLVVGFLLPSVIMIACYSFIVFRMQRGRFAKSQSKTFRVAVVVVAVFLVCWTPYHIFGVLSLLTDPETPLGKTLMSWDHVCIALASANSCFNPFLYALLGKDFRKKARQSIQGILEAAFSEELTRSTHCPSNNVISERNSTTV
# Method: Desensitization experiments were used to measure the selectivity of various ligands for C3aR, since this can help to clarify whether the non-peptidic ligands bind selectively to C3aR over other GPCRs that signal through intracellular calcium release.
# The hC3a (3 μM) was administered to human monocyte derived macrophage cells, which produces an efflux of intracellular Ca^2+ that dissipates after 4-5 mins (FIGS. 4A and 4B). A second addition of 3 μM hC3a after 5 mins has no effect, due to desensitization of the receptor through either receptor (C3a receptor) phosphorylation or receptor internalization from the cell surface.
# [2] = tested on: human kidney tubule cells; assay: ELISA of cytokines from human kidney tubule cells; assay type: cell-based; details: for IL-8: 0 μM gives 1.8 ± 0.3; for IL-6: 0 μM gives 2.4 ± 0.4; for TNF: 0 μM gives 10.1 ± 2; for GMCSF (pg/ml/ml): 0 μM gives 71.3 ± 23; for Fibronectin: 0 μM gives 75.2 ± 29
# Method: Human renal cortical tissue (10 g) was minced finely, washed several times and agitated for 20 minutes at 37° C. in a Krebs-Henseleit buffer (KHB) containing collagenase type II (1 mg/mL), Cold KHB was added and the solution passed through a 297 μm sieve (50 Mesh, Sigma). After washing three times the tubular fragments were re-suspended in 45% percoll-KHB and centrifuged at 20000×g. A high density band, previously shown to be tubule fragments, was removed and cultured in a serum free, hormonally defined DMEM/F12 media (containing 10 ng/mL epidermal growth factor, 5 μg/mL insulin, […] transferrin, 50 nM hydrocortisone, […] prostaglandin E1, 50 nM selenium and 5 pM triiodothyronine). All experiments were performed on confluent passage 2 HTEC made quiescent by two washes followed by incubation for 24 h in serum and growth factor free DMEM/F12 media. These cells were incubated with C3aR agonists and antagonists.
# Supernatant and lysates from cell culture treatment samples were collected and stored separately at −20° C. until further use. Human IL1B, IL8, IL6 and TNF levels were determined using the respective OptEIA™ ELISA kit (BD Biosciences, San Diego, USA) according to the manufacturer's instructions. The readings were recorded on a FLUOstar Optima (BMG LabTechnologies, Offenburg, Germany).
smiles,measurement,setting,value
"CC(C)C[C@H](NC(=O)c1c[nH]c2ccccc12)c1nc(C(=O)N[C@@H](CCCNC(=N)N)C(=O)O)co1 [Compound 8, 3-Indole Carboxylic Acid-Leucine-Oxazole-Arginine-OH]",Ca^2+ efflux on addition after first desensitization with hC3a (selectivity for C3aR over other GPCRs),[1],caused a second efflux of intracellular Ca^2+
same,IL-8,[2]; compound 8 at 1 μM,1.9 ± 0.4 ng/mL
same,IL-6,[2]; compound 8 at 1 μM,2.5 ± 0.1 ng/mL
same,TNF,[2]; compound 8 at 1 μM,9.9 ± 1 pg/mL
same,GMCSF (pg/ml/ml),[2]; compound 8 at 1 μM,74.6 ± 7.1 pg/ml/ml
same,Fibronectin,[2]; compound 8 at 1 μM,89.6 ± 11 ng/mL
same,IL-8,[2]; compound 8 at 2.5 μM,5.7 ± 2 ng/mL
same,IL-6,[2]; compound 8 at 2.5 μM,8.2 ± 0.6 ng/mL
same,TNF,[2]; compound 8 at 2.5 μM,12.3 ± 1 pg/mL
same,GMCSF (pg/ml/ml),[2]; compound 8 at 2.5 μM,142.8 ± 10.9 pg/ml/ml
same,Fibronectin,[2]; compound 8 at 2.5 μM,89.0 ± 5 ng/mL
same,IL-8,[2]; compound 8 at 5 μM,31.5 ± 5 ng/mL
same,IL-6,[2]; compound 8 at 5 μM,30.9 ± 2.5 ng/mL
same,TNF,[2]; compound 8 at 5 μM,76.6 ± 13 pg/mL
same,GMCSF (pg/ml/ml),[2]; compound 8 at 5 μM,738.0 ± 127.6 pg/ml/ml
same,Fibronectin,[2]; compound 8 at 5 μM,149.5 ± 21 ng/mL
same,IL-8,[2]; compound 8 at 10 μM,30.4 ± 8 ng/mL
same,IL-6,[2]; compound 8 at 10 μM,33.5 ± 5 ng/mL
same,TNF,[2]; compound 8 at 10 μM,117.8 ± 53 pg/mL
same,GMCSF (pg/ml/ml),[2]; compound 8 at 10 μM,1056 ± 147.8 pg/ml/ml
same,Fibronectin,[2]; compound 8 at 10 μM,172.9 ± 20 ng/mL
same,IL-8,[2]; compound 8 at 20 μM,76.4 ± 18 ng/mL
same,IL-6,[2]; compound 8 at 20 μM,55.8 ± 12 ng/mL
same,TNF,[2]; compound 8 at 20 μM,277.9 ± 28 pg/mL
same,GMCSF (pg/ml/ml),[2]; compound 8 at 20 μM,2853 ± 399 pg/ml/ml
same,Fibronectin,[2]; compound 8 at 20 μM,200.9 ± 28 ng/mL
same,"Induction at 40 μM, Fibronectin",[2]; compound 8 at 40 μM vs 0 μM,2-fold
same,"Induction at 40 μM, GMCSF",[2]; compound 8 at 40 μM vs 0 μM,80-fold
same,"Induction at 40 μM, IL-6",[2]; compound 8 at 40 μM vs 0 μM,40-fold
same,"Induction at 40 μM, IL-8",[2]; compound 8 at 40 μM vs 0 μM,75-fold
same,"Induction at 40 μM, TNF",[2]; compound 8 at 40 μM vs 0 μM,75-fold
same,IL-8,[2]; compound 8 at 40 μM,135.0 ± 9 ng/mL
same,IL-6,[2]; compound 8 at 40 μM,96.9 ± 29 ng/mL
same,TNF,[2]; compound 8 at 40 μM,757.8 ± 13 pg/mL
same,GMCSF (pg/ml/ml),[2]; compound 8 at 40 μM,5790 ± 726 pg/ml/ml
same,Fibronectin,[2]; compound 8 at 40 μM,148.0 ± 32 ng/mL
same,Secretion of inflammatory cytokines,[2]; primary human kidney cells,induces secretion of inflammatory cytokines
